Test results as given in patent US20250362286A1, “SCREENING MODELS AND METHODS OF CANCER TREATMENT” (The Regents of the University of California, priority 2022, published 2025).

Experiments:
Format in all cases: cell-based
MDA-MB-231s = assay: CD24 mRNA expression in 2D (differentiation screening); conditions: 200 μM, 48h, FCthreshold=2.0
Protocol: FIG. 3H depicts relative CD24 mRNA expression. CD24 expression was an early indicator of response to ISX9 in 2D across several TNBC cell lines. Treatment screening of several different TNBC cell lines with ISX9 in 2D for 48h yielded four responders, as determined by CD24 mRNA expression (FIG. 3H).
These analogs were screened for their potential to differentiate MDA-MB-231s, yielding at least one new hit, CR-1 (˜98% similarity), which induced a ˜6-fold upregulation of CD24 at a concentration of 200 μM at 48h in 2D (FIG. 6).

MDAs [1] = assay: invasion distances of MDAs in HD Col1 treated with GSIs; conditions: HD Col1, vs vehicle (0.1% DMSO)
From the text: Therefore, this example assessed what effect GSIs would have on MDAs in HD Col1. […] FIG. 3C depicts invasion distances of MDAs in HD Col1 treated with vehicle (0.1% DMSO) or GSIs DAPT and MK0752.

CSCs = assay: phenotypic effects in CSCs (MOA controls); conditions: compared to ISX9 (data not shown)
From the text: (§1) Therefore, to begin to characterize the MOA of ISX9 in CSCs, it was first determined whether ISX9 treatment of CSCs triggered Ca^2+ signaling. MDAs were transduced to express the genetically encoded Ca^2+ sensor GCamp6f and treated with vehicle, ionomycin (positive control), or ISX9 (data not shown). […] FIG. 5 depicts Ca^2+ response of MDAs to ISX9 treatment. Scale bar=250 μm.

MDA-MB-231 cells = assay: western blot of acetylation of histones H3 and H4; conditions: 2D- and 3D-treated cells, 24 hours
From the text: Also identified was the fact that a similar increase in acetylation was found in patient-derived organoid models. […] Acetylation and deactylation of histones H3 and H4 are typically orchestrated by Histone Acetyltransferases (HATs), including the several HAT subfamilies, as well as HDACs (see, e.g., Marmorstein, R. et al. Cold Spring Harb. Perspect. Biol. 6, a018762 (2014)). Not wishing to be bound by any particular theory, Isx9 may bind directly to HATs and/or HDACs in order to activate histone acetylation and drive induction of MET and/or CSC differentiation.

MDAs [2] = assay: Ca2+ signaling with genetically encoded Ca2+ sensor GCamp6f; conditions: GCamp6f-expressing MDAs (data not shown)
From the text: as §1

SMILES: CC(C)NC(=O)c1cc(-c2cccs2)on1 [CR-1]
- upregulation of CD24 (MDA-MB-231s): ~6 fold

SMILES: C[C@H](NC(=O)Cc1cc(F)cc(F)c1)C(=O)N[C@H](C(=O)OC(C)(C)C)c1ccccc1 [DAPT]
- inhibition of the CINP / tumor cell invasion (MDAs [1]): did not inhibit the CINP, but rather slightly promoted tumor cell invasion

SMILES: O=C(O)CC[C@H]1CC[C@@](c2cc(F)ccc2F)(S(=O)(=O)c2ccc(Cl)cc2)CC1 [MK0752]
- inhibition of the CINP / tumor cell invasion (MDAs [1]): did not inhibit the CINP, but rather slightly promoted tumor cell invasion

SMILES: CN[C@H](CC(=O)O)C(=O)O [NMDA, N-Methyl-D-aspartate]
- phenotypic effects (CSCs): no phenotypic effects

SMILES: CC(/C=C/C(=O)NO)=C\[C@@H](C)C(=O)c1ccc(N(C)C)cc1 [TSA, reference compound]
- acetylation of histones H3 and H4 (MDA-MB-231 cells): similarly induced H3/H4 acetylation

SMILES: C[C@H](CCC(=O)O)C[C@H](C)C[C@H](C)C(=O)/C=C(\O)[C@H](C)C[C@H](C)C/C=C/[C@@H](C)[C@@H](O)[C@@H](C)[C@@H](O)C[C@@H]1CC[C@@](C)([C@H]2CC[C@@](C)([C@@H](C)O)O2)O1 [ionomycin, reference compound]
- Ca2+ signal (MDAs [2]): observed
